In paper PMC6118387, “In silico drug absorption tract: An agent-based biomimetic model for human oral drug absorption” (PLoS ONE, 2018):
Where “and” joins values, the source holds several entries; their conditions need not be identical. Identical values can stand only once. Like-named read-outs stand apart in the source and are kept apart here.

How the values were obtained:
[1] = midazolam, literature referent value, cited from earlier work
[2] = model drug parameter fixed to literature reported value; cited from earlier work
[3] = Clinical bioequivalence study: plasma concentrations (LC-MS-MS) and noncompartmental PK after oral tablet; format: in vivo, human
[4] = Referent clinical, midazolam 15 mg tablet oral, N = 15, mean ±1 SD
[5] = human, plasma, Referent clinical, midazolam 15 mg tablet oral, N = 15, mean ±1 SD

SMILES: Cc1ncc2n1-c1ccc(Cl)cc1C(c1ccccc1F)=NC2 [Midazolam, midazolam]
- F (absolute oral bioavailability) [1]: 31–72%
- Fa × Fg [1]: 48–76%
- Fh [1]: 36–57%
- Fa × Fg ([1]; listed as midazolam): 48–76%
- Fh ([1]; listed as midazolam): 36–57%
- logP, In silico Logarithm of partition coefficient [2]: 3.6
- CL/F [3, 4]: 57.72 ± 19.31 L/h
- V/F [3, 4]: 205.20 ± 56.75 L
- Tmax ([3]; Referent clinical, midazolam 15 mg tablet oral, N = 15, median): 30 min
- Cmax ([3]; human, plasma, oral, 15 mg, midazolam, peak of the mean clinical concentration-time profile over 24 hours): 90.2 ng/mL
- concentration at 0 h ([3]; human, plasma, po, 15 mg, midazolam 15 mg oral, plasma, mean (±1 SD) N=15, read-out: Concentration, Referent): 0 ng/mL
- concentration at 0 h ([3]; human, plasma, po, 15 mg, midazolam 15 mg oral, plasma, one value per subject (columns A1-A8, B1-B7), read-out: Concentration, individual subjects): 0 ng/mL
- concentration at 0.25 h ([3]; human, plasma, po, 15 mg, midazolam 15 mg oral, plasma, 0.25 h, mean (±1 SD) N=15, read-out: Concentration, Referent): 12.2 ± 14.4 ng/mL
- concentration at 0.5 h ([3]; human, plasma, po, 15 mg, midazolam 15 mg oral, plasma, 0.5 h, mean (±1 SD) N=15, read-out: Concentration, Referent): 90.2 ± 47.6 ng/mL
- concentration at 1 h ([3]; human, plasma, po, 15 mg, midazolam 15 mg oral, plasma, 1 h, mean (±1 SD) N=15, read-out: Concentration, Referent): 56.6 ± 22.6 ng/mL
- concentration at 1.5 h ([3]; human, plasma, po, 15 mg, midazolam 15 mg oral, plasma, 1.5 h, mean (±1 SD) N=15, read-out: Concentration, Referent): 46.8 ± 12.5 ng/mL
- concentration at 2 h ([3]; human, plasma, po, 15 mg, midazolam 15 mg oral, plasma, 2 h, mean (±1 SD) N=15, read-out: Concentration, Referent): 47.8 ± 19.1 ng/mL
- concentration at 2.5 h ([3]; human, plasma, po, 15 mg, midazolam 15 mg oral, plasma, 2.5 h, mean (±1 SD) N=15, read-out: Concentration, Referent): 41.1 ± 15.1 ng/mL
- concentration at 3 h ([3]; human, plasma, po, 15 mg, midazolam 15 mg oral, plasma, 3 h, mean (±1 SD) N=15, read-out: Concentration, Referent): 40.3 ± 26.1 ng/mL
- concentration at 4 h ([3]; human, plasma, po, 15 mg, midazolam 15 mg oral, plasma, 4 h, mean (±1 SD) N=15, read-out: Concentration, Referent): 32.4 ± 21.1 ng/mL
- concentration at 6 h ([3]; human, plasma, po, 15 mg, midazolam 15 mg oral, plasma, 6 h, mean (±1 SD) N=15, read-out: Concentration, Referent): 15.6 ± 9.4 ng/mL
- concentration at 8 h ([3]; human, plasma, po, 15 mg, midazolam 15 mg oral, plasma, 8 h, mean (±1 SD) N=15, read-out: Concentration, Referent): 9.33 ± 5.73 ng/mL
- concentration at 10 h ([3]; human, plasma, po, 15 mg, midazolam 15 mg oral, plasma, 10 h, mean (±1 SD) N=15, read-out: Concentration, Referent): 5.75 ± 4.06 ng/mL
- concentration at 12 h ([3]; human, plasma, po, 15 mg, midazolam 15 mg oral, plasma, 12 h, mean (±1 SD) N=15, read-out: Concentration, Referent): 3.48 ± 2.75 ng/mL
- concentration at 24 h ([3]; human, plasma, po, 15 mg, midazolam 15 mg oral, plasma, 24 h, mean (±1 SD) N=15, read-out: Concentration, Referent): 0.41 ± 0.63 ng/mL
- AUC [3, 5]: 296 ± 126 ng·h/mL
- Cmax [3, 5]: 101 ± 33 ng/mL
- k el [3, 5]: 7.78e-05 s⁻¹
- Concentration, individual subjects ([3]; midazolam 15 mg oral, plasma, 2.5 h, one value per subject (columns A1-A8, B1-B7)): 54.91 ng/mL and 40.38 ng/mL and 25.80 ng/mL and 40.78 ng/mL and 31.74 ng/mL and 48.76 ng/mL and 34.21 ng/mL and 20.63 ng/mL and 33.92 ng/mL and 30.24 ng/mL and 57.61 ng/mL and 24.84 ng/mL and 35.19 ng/mL and 58.33 ng/mL and 78.77 ng/mL
- Concentration, individual subjects ([3]; midazolam 15 mg oral, plasma, 3 h, one value per subject (columns A1-A8, B1-B7)): 52.06 ng/mL and 27.73 ng/mL and 21.71 ng/mL and 25.74 ng/mL and 36.83 ng/mL and 69.41 ng/mL and 35.36 ng/mL and 17.14 ng/mL and 26.32 ng/mL and 22.37 ng/mL and 41.78 ng/mL and 21.67 ng/mL and 38.29 ng/mL and 47.32 ng/mL and 120.12 ng/mL
- Concentration, individual subjects ([3]; midazolam 15 mg oral, plasma, 4 h, one value per subject (columns A1-A8, B1-B7)): 42.50 ng/mL and 20.80 ng/mL and 19.34 ng/mL and 20.60 ng/mL and 28.96 ng/mL and 77.03 ng/mL and 23.38 ng/mL and 14.36 ng/mL and 20.65 ng/mL and 15.37 ng/mL and 24.77 ng/mL and 22.90 ng/mL and 30.75 ng/mL and 41.37 ng/mL and 83.44 ng/mL
- Concentration, individual subjects ([3]; midazolam 15 mg oral, plasma, 6 h, one value per subject (columns A1-A8, B1-B7)): 24.75 ng/mL and 8.47 ng/mL and 11.09 ng/mL and 8.46 ng/mL and 15.04 ng/mL and 29.67 ng/mL and 12.43 ng/mL and 6.69 ng/mL and 9.53 ng/mL and 10.09 ng/mL and 12.41 ng/mL and 7.25 ng/mL and 15.05 ng/mL and 24.91 ng/mL and 38.15 ng/mL
- Concentration, individual subjects ([3]; midazolam 15 mg oral, plasma, 8 h, one value per subject (columns A1-A8, B1-B7)): 14.78 ng/mL and 4.58 ng/mL and 5.87 ng/mL and 3.98 ng/mL and 6.08 ng/mL and 15.63 ng/mL and 6.16 ng/mL and 4.20 ng/mL and 7.07 ng/mL and 8.11 ng/mL and 11.11 ng/mL and 3.58 ng/mL and 8.96 ng/mL and 17.42 ng/mL and 22.42 ng/mL
- Concentration, individual subjects ([3]; midazolam 15 mg oral, plasma, 10 h, one value per subject (columns A1-A8, B1-B7)): 9.22 ng/mL and 2.05 ng/mL and 4.27 ng/mL and 2.24 ng/mL and 3.91 ng/mL and 8.93 ng/mL and 3.37 ng/mL and 2.53 ng/mL and 5.05 ng/mL and 3.40 ng/mL and 6.04 ng/mL and 1.38 ng/mL and 5.79 ng/mL and 13.69 ng/mL and 14.29 ng/mL
- Concentration, individual subjects ([3]; midazolam 15 mg oral, plasma, 12 h, one value per subject (columns A1-A8, B1-B7)): 5.37 ng/mL and 1.26 ng/mL and 2.53 ng/mL and 1.54 ng/mL
